Experiments:
HS 578 T = assay: NCI SRB assay; assay type: cell-based, human
U251 = assay: NCI SRB assay; assay type: cell-based, human
HOP-92 = assay: NCI SRB assay; assay type: cell-based, human
SK-MEL-5 = assay: NCI SRB assay; assay type: cell-based, human
DU-145 = assay: NCI SRB assay; assay type: cell-based, human
COLO 205 = assay: NCI SRB assay; assay type: cell-based, human
RPMI-8226 = assay: NCI SRB assay; assay type: cell-based, human
OVCAR-3 = assay: NCI SRB assay; assay type: cell-based, human
HCC-2998 = assay: NCI SRB assay; assay type: cell-based, human
SF-539 = assay: NCI SRB assay; assay type: cell-based, human
MDA-MB-435 = assay: NCI SRB assay; assay type: cell-based
MALME-3M = assay: NCI SRB assay; assay type: cell-based, human
MDA-MB-468 = assay: NCI SRB assay; assay type: cell-based, human
NCI/ADR-RES = assay: NCI SRB assay; assay type: cell-based, human
hCA XII = biological target: T1, hCA XII (Homo sapiens, UniProt O43570); assay: stopped flow CO2 hydrase assay; assay type: biochemical
T1 construct: made in house
Procedure: (§1) Carbonic anhydrase inhibition assay
(§2) The carbonic anhydrase catalyzed CO2 hydration actions for the quinazoline-based […]
(§3) Photophysics stopped-flow, as described previously. The enzymes are recombinant proteins prepared in our lab. Phenol red (at a concentration of 0.2 mM) has been used as indicator, working at the absorbance maximum of 557 nm, with 20 mM Hepes (pH 7.5) as buffer, and 20 mM Na2SO4 (for maintaining constant the ionic strength), following the initial rates of the CA- […]
(§4) 1.7 to 17 mM for the determination of the kinetic parameters and inhibition constants. For each […]
(§5) initial velocity. The uncatalyzed rates were determined in the same manner and subtracted from the total observed rates. Stock solutions of inhibitor (0.1 mM) were prepared in distilled-deionized water and dilutions up to 0.01 nM were done thereafter with the assay buffer. Inhibitor and enzyme solutions were preincubated together for 15 min at room temperature prior to assay, in order to allow for the formation of the E-I complex. The inhibition constants were obtained by non-linear least-squares methods using PRISM 3 and the Cheng-Prusoff equation, and represent the mean from at least three different determinations.

hCA IX = biological target: T2, hCA IX (Homo sapiens, UniProt Q16790); assay: stopped flow CO2 hydrase assay; assay type: biochemical
T2 construct: made in house
Procedure: as §1, §2, §3, §4, §5

hCA I = biological target: T3, hCA I (Homo sapiens, UniProt P00915); assay: stopped flow CO2 hydrase assay; assay type: biochemical; details: mean from 3 assays
T3 construct: made in house
Procedure: as §1, §2, §3, §4, §5

SK-MEL-28 = assay: NCI SRB assay; assay type: cell-based, human
IGROV1 = assay: NCI SRB assay; assay type: cell-based, human
HL-60(TB) = assay: NCI SRB assay; assay type: cell-based, human; details: HL-60(TB)
OVCAR-5 = assay: NCI SRB assay; assay type: cell-based, human
M14 = assay: NCI SRB assay; assay type: cell-based, human
CAKI-1 = assay: NCI SRB assay; assay type: cell-based, human
PC-3 = assay: NCI SRB assay; assay type: cell-based, human
A498 = assay: NCI SRB assay; assay type: cell-based, human
NCI-H522 = assay: NCI SRB assay; assay type: cell-based, human
UACC-257 = assay: NCI SRB assay; assay type: cell-based, human

T1 sequence (O43570 25-354): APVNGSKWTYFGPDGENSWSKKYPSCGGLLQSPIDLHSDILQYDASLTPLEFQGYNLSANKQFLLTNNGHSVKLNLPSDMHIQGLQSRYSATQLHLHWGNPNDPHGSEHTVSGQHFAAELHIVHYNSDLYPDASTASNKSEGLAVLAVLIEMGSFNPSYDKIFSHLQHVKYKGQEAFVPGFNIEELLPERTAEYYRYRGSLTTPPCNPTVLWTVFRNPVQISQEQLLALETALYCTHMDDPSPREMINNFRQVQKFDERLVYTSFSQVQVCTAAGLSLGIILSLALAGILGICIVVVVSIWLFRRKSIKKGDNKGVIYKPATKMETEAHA
T3 sequence (P00915 whole entry): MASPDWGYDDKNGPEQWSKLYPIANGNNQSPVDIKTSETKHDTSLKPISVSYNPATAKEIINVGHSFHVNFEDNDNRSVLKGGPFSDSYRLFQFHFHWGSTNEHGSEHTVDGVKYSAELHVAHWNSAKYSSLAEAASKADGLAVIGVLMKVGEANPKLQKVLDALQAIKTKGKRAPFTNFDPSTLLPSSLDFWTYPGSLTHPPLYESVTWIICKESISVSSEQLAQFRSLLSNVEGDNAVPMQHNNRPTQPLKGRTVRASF

Cc1cccc(-c2nc(Nc3ccccc3C(=O)O)c3ccccc3n2)c1 [6a, 2-((2-(m-Tolyl)quinazolin-4-yl)amino)benzoic acid]
GI% (HS 578 T; HS 578 T, 10 μM): 84%
Growth Percent (HS 578 T; HS 578T, 1.00E-5 Molar): 16.61%
GI% (U251; U251, 10 μM): 73%
Growth Percent (U251; U251, 1.00E-5 Molar): 26.61%
GI% (HOP-92; HOP-92, 10 μM): 105%
Growth Percent (HOP-92; HOP-92, 1.00E-5 Molar): -5.02%
GI% (SK-MEL-5; SK-MEL-5, 10 μM): 94%
Growth Percent (SK-MEL-5; SK-MEL-5, 1.00E-5 Molar): 6.01%
GI% (DU-145; DU-145, 10 μM): 50%
Growth Percent (DU-145; DU-145, 1.00E-5 Molar): 50.47%
GI% (COLO 205; COLO 205, 10 μM): – (Only GI% higher than 20% are shown)
Growth Percent (COLO 205; COLO 205, 1.00E-5 Molar): 120.57%
GI% (RPMI-8226; RPMI-8226, 10 μM): 71%
Growth Percent (RPMI-8226; RPMI-8226, 1.00E-5 Molar): 28.59%
GI% (OVCAR-3; OVCAR-3, 10 μM): 66%
Growth Percent (OVCAR-3; OVCAR-3, 1.00E-5 Molar): 34.15%
GI% (HCC-2998; HCC-2998, 10 μM): 73%
Growth Percent (HCC-2998; HCC-2998, 1.00E-5 Molar): 27.10%
GI% (SF-539; SF-539, 10 μM): 52%
Growth Percent (SF-539; SF-539, 1.00E-5 Molar): 47.66%
GI% (MDA-MB-435; MDA-MB-435, 10 μM): 55%
Growth Percent (MDA-MB-435; MDA-MB-435, 1.00E-5 Molar): 44.63%
GI% (MALME-3M; 10 μM): 63%
Growth Percent (MALME-3M; 1.00E-5 Molar): 37.17%
GI% (MDA-MB-468; MDA-MB-468, 10 μM): 115%
Growth Percent (MDA-MB-468; MDA-MB-468, 1.00E-5 Molar): -15.06%
GI% (NCI/ADR-RES; 10 μM): 75%
Growth Percent (NCI/ADR-RES; 1.00E-5 Molar): 24.78%
Selectivity ratio I/XII (hCA XII; KI hCA I / KI hCA XII): 11.1
Selectivity ratio II/XII (hCA XII; KI hCA II / KI hCA XII): 9.47
Ki (hCA XII; mean from 3 assays): 9 µM
Selectivity ratio I/IX (hCA IX; KI hCA I / KI hCA IX): 2.4
Selectivity ratio II/IX (hCA IX; KI hCA II / KI hCA IX): 2.00
Ki (hCA IX; mean from 3 assays): 42.5 µM
Ki (hCA I): > 100 µM
GI% (SK-MEL-28; SK-MEL-28, 10 μM): 50%
Growth Percent (SK-MEL-28; SK-MEL-28, 1.00E-5 Molar): 49.95%
GI% (IGROV1; IGROV1, 10 μM): 41%
Growth Percent (IGROV1; IGROV1, 1.00E-5 Molar): 59.24%
GI% (HL-60(TB); 10 μM): 60%
Growth Percent (HL-60(TB); 1.00E-5 Molar): 39.37%
GI% (OVCAR-5; OVCAR-5, 10 μM): 23%
Growth Percent (OVCAR-5; OVCAR-5, 1.00E-5 Molar): 77.00%
GI% (M14; M14, 10 μM): 75%
Growth Percent (M14; M14, 1.00E-5 Molar): 25.25%
GI% (CAKI-1; CAKI-1, 10 μM): 48%
Growth Percent (CAKI-1; CAKI-1, 1.00E-5 Molar): 52.39%
GI% (PC-3; PC-3, 10 μM): 71%
Growth Percent (PC-3; PC-3, 1.00E-5 Molar): 29.47%
GI% (A498; A498, 10 μM): 52%
Growth Percent (A498; A498, 1.00E-5 Molar): 47.56%
GI% (NCI-H522; NCI-H522, 10 μM): 40%
Growth Percent (NCI-H522; NCI-H522, 1.00E-5 Molar): 59.94%
GI% (UACC-257; UACC-257, 10 μM): 51%
Growth Percent (UACC-257; UACC-257, 1.00E-5 Molar): 49.24%

Source: PMC10035947, “Development of novel anilinoquinazoline-based carboxylic acids as non-classical carbonic anhydrase IX and XII inhibitors” (Journal of Enzyme Inhibition and Medicinal Chemistry, 2023)
